{"source": "patent US20070069122A1", "about": "“In situ polypeptide identification” (priority 2005, published 2007)", "key": {"kidney proximal tubules": {"system": "kidney proximal tubules", "experiment": "Histology of kidney after gentamicin treatment (model system for nephrotoxicity)", "assay_type": "in vivo, rat", "details": "rats, 100 mg/kg/day sc for 7 days", "description": "Permission for animal studies was obtained from the local regulatory agencies, and all study protocols were in compliance with animal welfare guidelines. Male HanBrl: Wistar rats of approximately 12 weeks of age (300g±20%) were obtained from BRL, Füllinsdorf, Switzerland. The animals were housed individually in Macrolone cages with wood shavings as bedding at […] and 50% relative humidity in a 12-hr light/dark rhythm with free access to water and Kliba 3433 rodent pellets (Provimi Kliba AG, Kaiseraugst, Switzerland).\n(§1) Animals were treated for 7 consecutive days with 100 mg/kg/day Gentamicin (dissolved in saline) or vehicle by subcutaneous (sc) injections and sacrificed 24 hours after the last application by CO2 inhalation. Immediately preceding sacrifice, terminal blood samples for clinical chemistry investigations were collected from the retroorbital sinus under isofluoran anesthesia.\nRepresentative kidney samples were fixed in 10% neutral buffered formalin. All samples were processed using routine procedures and embedded in Paraplast. Tissue sections approximately 2-3 microns were cut and stained with hematoxylin-eosin (HE) or periodic acid-Schiff (PAS).\nMarked degeneration/regeneration of proximal tubules (grade 4) was clearly observed in rats treated with 100 mg/kg/day gentamicin for 7 days. This finding was correlated to the analysis of rat kidney thin sections by MALDI IMS. […]"}, "transthyretin": {"system": "transthyretin", "experiment": "Immunohistochemical examination of kidney", "assay_type": "in vivo", "details": "treated versus control rat, whole kidney sections", "description": "FIG. 8: Immunohistochemical examination of kidney from control and gentamicin-treated rat. […] High magnification photomicrographs from the cortex (C, E) vs. the medulla (D, F) reveal specific localization of TTR immunoreactivity in the cortex tubules of the treated kidney. Transthyretin immunoreactivity is visualized by the grey precipitate of diaminobenzidine-Ni counterstained with cresyl violet."}, "rat kidney cortex": {"system": "rat kidney cortex", "experiment": "MALDI IMS profiling of rat kidney cortex thin sections, gentamicin-treated versus control", "assay_type": "in vivo", "procedure": "as §1\nMarked degeneration/regeneration of proximal tubules (grade 4) was clearly observed in rats treated with 100 mg/kg/day gentamicin for 7 days. This finding was correlated to the analysis of rat kidney thin sections by MALDI IMS. 9 control and 9 gentamicin-treated rat kidneys thin sections (3 animals, 3 sections from each animal; the thin section was spotted with matrix as shown in FIG. 1) were subjected to mass spectrometric analysis as described below.\nKidneys were dissected from rats, snap frozen on dry ice and stored at −80° C. prior to further processing. 12 μm sections were obtained on a cryostat (LEICA CM 3000, Leica Microsystems) at −18° C. and deposited on ITO-coated conductive glass slides (Indium Tin Oxide 50×75×0.9 mm, Delta Technologies). Sample preparation were performed according to published procedure (Schwartz, S. A., Reyzer, M. L., and Caprioli, R. M. (2003) Journal of Mass Spectrometry 38, 699-708). Tissue sections were then fixed by immersion in ethanol bathes and let to dry 30 minutes under vacuum. During all the process the sections were stored as much as possible under vacuum. Deposition of MALDI matrix was done manually with a pipette. 200 nL of freshly prepared sinapinic acid solution (3,5-dimethoxy-4-hydroxycinnaminic acid, Fluka, 20 mg/ml in water/acetonitrile 1:1, 0.1% trifluoroacetic acid) was deposited onto the tissue. After crystallization, an additional 200 nL was layered onto the spots and the matrix was let to dry at room temperature. The sample was then kept under vacuum if not analyzed immediately by mass spectrometry.\nMALDI MS spectra were acquired using an UltraFlex MALDI ToF/ToF instrument (Bruker Daltonics) with a standard 337-nm N2 laser operating at 50Hz and a laser spot size of 50 μm. The instrument was operated in positive linear mode (2 kDa-30 kDa) at constant laser power. A total of 8 times 100 laser shots were averaged for each manually deposited matrix droplets. Spectra were externally calibrated using a protein calibration standard solution (Insulin, Ubiquitin I, Cytochrom C, Myoglobin; Bruker Daltonics). Internal calibration was performed post-acquisition using redundant known peaks from the spectra (Hemoglobin α-chain, Thymosin β-4, Cytochrome c oxidase polypeptide VIIa L, Ubiquitin, Cytochrome c oxidase polypeptide VIb).\nThe spectra were processed using a combination of tools available commercially and developed in-house at Vanderbilt University. Baseline subtraction, normalization, peak detection, and spectral alignment were performed using the ProTS-Data software (Efeckta Technologies, Inc.) All spectra were baseline corrected to remove contributions of chemical noise to the signal. This step was performed by locally estimating the baseline and subtracting the […] from the raw data. For the present data set the software was set to consider a window width 10 times that of the peak width to account for the differences in resolution for different m/z regions. The baseline corrected spectra were normalized in intensity by scaling the spectra to a common total ion current. Peak detection was performed using ProTS-Data and a list of 13 common peaks was selected to be internal alignment points using a quadratic calibration function. The criterion used to select common peaks were that the peak must occur in greater than 80% of the spectra to be aligned, must not have interfering or overlapping peaks, and the peaks must have a standard deviation of the observed centroid value less that 7 mass units. […]"}, "[1]": {"system": "transthyretin (prealbumin)", "experiment": "Western blot of kidney cortex cytosolic fraction and HPLC fraction D10", "assay_type": "in vivo, rat", "details": "kidney cortex cytosolic fraction", "procedure": "Tissue extracts from control and treated rat kidneys were obtained by homogenization of a piece of cortex in a 10 mM Tris-HCl buffer pH 7.6 containing 250 mM sucrose and protease inhibitors (Roche Complete). The tissue extract was subjected to three successive centrifugation steps at 4° C. (10 min at 680 g; 10 min at 10 000 g; 1 h at 100 000 g) whereas the pellets were discarded and the supernatant of the last centrifugation step was kept as the kidney cytosolic fraction.\n1 μl of the kidney cytosolic fraction and of the relevant HPLC fraction were subjected to electrophoresis using a 4-20% Tris-Glycine SDS-PAGE gel (Invitrogen) and the proteins were subsequently transferred to a PVDF membrane. Blots were blocked in 5% milk in PBS containing 0.1% Tween 20 for 1 h and incubated overnight at room temperature with an […] (Abcam) in PBS containing 5% milk and 0.1% Tween 20. After washing with PBS containing 0.1% Tween 20, blots were incubated for 1 h with horseradish peroxidase conjugated with an anti-sheep IgG antibody (Silenus Laboratories). Antibody binding was detected using ECL western blotting reagents (Amersham)."}, "[2]": {"details": "kidney cortex, 100 mg/kg/day sc 7 days"}}, "data": [{"substance": "Gentamicin", "values": [{"measurement": "degeneration/regeneration of proximal tubules, grade", "setting": "kidney proximal tubules", "value": 4}, {"measurement": "transthyretin immunoreactivity in kidney cortex", "setting": "transthyretin", "value": "high levels of transthyretin immunoreactivity"}, {"measurement": "presence of species 12959 (transthyretin S28-Q146) in mass spectrum", "setting": "rat kidney cortex; in situ and in HPLC fraction D10", "value": "only present in the mass spectrum of the gentamicin-treated sample"}, {"measurement": "doubly-charged species at m/z 6480, behaviour in treated versus control cortex", "setting": "rat kidney cortex; kidney cortex", "value": "showed a similar behavior"}, {"measurement": "Average S/N (gent), peak m/z 3343.714", "setting": "rat kidney cortex; [2]", "value": 2}, {"measurement": "Average S/N (gent), peak m/z 4010.498", "setting": "rat kidney cortex; [2]", "value": 1}, {"measurement": "Average S/N (gent), peak m/z 4107.083", "setting": "rat kidney cortex; [2]", "value": 5}, {"measurement": "Average S/N (gent), peak m/z 4141.907", "setting": "rat kidney cortex; [2]", "value": 1}, {"measurement": "Average S/N (gent), peak m/z 4181.504", "setting": "rat kidney cortex; [2]", "value": 0}, {"measurement": "Average S/N (gent), peak m/z 4497.792", "setting": "rat kidney cortex; [2]", "value": 0}, {"measurement": "Average S/N (gent), peak m/z 5096.886", "setting": "rat kidney cortex; [2]", "value": 5}, {"measurement": "Average S/N (gent), peak m/z 5222.249", "setting": "rat kidney cortex; [2]", "value": 0}, {"measurement": "Average S/N (gent), peak m/z 5301.852", "setting": "rat kidney cortex; [2]", "value": 0}, {"measurement": "Average S/N (gent), peak m/z 5355.669", "setting": "rat kidney cortex; [2]", "value": 1}, {"measurement": "Average S/N (gent), peak m/z 5478.957", "setting": "rat kidney cortex; [2]", "value": 2}, {"measurement": "Average S/N (gent), peak m/z 6080.035", "setting": "rat kidney cortex; [2]", "value": 1}, {"measurement": "Average S/N (gent), peak m/z 6498.996", "setting": "rat kidney cortex; [2]", "value": 0}, {"measurement": "Average S/N (gent), peak m/z 6912.956", "setting": "rat kidney cortex; [2]", "value": 6}, {"measurement": "Average S/N (gent), peak m/z 6938.997", "setting": "rat kidney cortex; [2]", "value": 1}, {"measurement": "Average S/N (gent), peak m/z 7083.364", "setting": "rat kidney cortex; [2]", "value": 6}, {"measurement": "Average S/N (gent), peak m/z 12959.23", "setting": "rat kidney cortex; [2]", "value": 5}, {"measurement": "Average S/N (gent), peak m/z 13004.71", "setting": "rat kidney cortex; [2]", "value": 0}, {"measurement": "Average S/N (gent), peak m/z 17100.68", "setting": "rat kidney cortex; [2]", "value": 0}, {"measurement": "Average S/N (gent), peak m/z 17176.83", "setting": "rat kidney cortex; [2]", "value": 0}, {"measurement": "transthyretin abundance in kidney by Western blot, gentamicin-treated versus control rats", "setting": "[1]", "value": "significantly more abundant"}]}]}
